Data published in patent US8952024B2, “Herbicidal pyrimidone derivatives” (E I du Pont de Nemours and Company, priority 2009, dated 2015).

Experiments:
Test in all cases: Test D pre-/postemergence plant response
Format in all cases: in vivo
[1] = tested on: chickweed (common chickweed, Stellaria media)
Text: (§1) Seeds of plant species selected from bermudagrass (Cynodon dactylon), Surinam grass (Brachiaria decumbens), large crabgrass (Digitaria sanguinalis), green foxtail (Setaria viridis), goosegrass (Eleusine indica), johnsongrass (Sorghum halepense), kochia (Kochia scoparia), morningglory (pitted morningglory, Ipomoea lacunosa), nutsedge (purple nutsedge, Cyperus rotundus), ragweed (common ragweed, Ambrosia elatior), black mustard (Brassica nigra), guineagrass (Panicum maximum), dallisgrass (Paspalum dilatatum), barnyardgrass (Echinochloa crus-galli), sandbur (southern sandbur, Cenchrus echinatus), sowthistle (common sowthistle, Sonchus oleraceous), prickly sida (Sida spinosa), Italian ryegrass (Lolium multiflorum), purslane (common purslane, Portulaca oleracea), signalgrass (broadleaf signalgrass, Brachiaria platyphylla), groundsel (common groundsel, Senecio vulgaris), chickweed (common chickweed, Stellaria media), dayflower (Virginia (VA) dayflower, Commelina virginica), bluegrass (annual bluegrass, Poa annua), naked crabgrass (Digitaria nuda), itchgrass (Rottboellia cochinchinensis), quackgrass (Elytrigia repens), field bindweed (Convolvulus arvensis), spanishneedles (Bidens bipinnata), mallow (common mallow, Malva sylvestris) and Russian thistle (Salsola kali), were planted into a blend of loam soil and sand and treated preemergence with test chemicals formulated in a non-phytotoxic solvent mixture which included a surfactant. At the same time, plants from these weed species were treated with postemergence applications of the test chemicals formulated in the same manner. Plants ranged in height from 2 to 18 cm (1- to 4-leaf stage) for postemergence treatments.
(§2) Treated plants and controls were maintained in a greenhouse for 14 to 21 days, after which time all species were visually evaluated and compared to controls. Plant response ratings, summarized in Table D, are based on a scale of 0 to 100 where 0 is no effect and 100 is complete control. A dash (-) response means no test result.

[2] = tested on: field bindweed (Convolvulus arvensis)
Text: as §1, §2

[3] = tested on: sandbur (southern sandbur, Cenchrus echinatus)
Text: as §1, §2

[4] = tested on: spanishneedles (Bidens bipinnata)
Text: as §1, §2

[5] = tested on: nutsedge (purple nutsedge, Cyperus rotundus)
Text: as §1, §2

[6] = tested on: ragweed (common ragweed, Ambrosia elatior)
Text: as §1, §2

[7] = tested on: quackgrass (Elytrigia repens)
Text: as §1, §2

[8] = tested on: morningglory (pitted morningglory, Ipomoea lacunosa)
Text: as §1, §2

[9] = tested on: black mustard (Brassica nigra)
Text: as §1, §2

[10] = tested on: Italian ryegrass (Lolium multiflorum)
Text: as §1, §2

[11] = tested on: prickly sida (Sida spinosa)
Text: as §1, §2

[12] = tested on: purslane (common purslane, Portulaca oleracea)
Text: as §1, §2

[13] = tested on: large crabgrass (Digitaria sanguinalis)
Text: as §1, §2

[14] = tested on: signalgrass (broadleaf signalgrass, Brachiaria platyphylla)
Text: as §1, §2

[15] = tested on: bluegrass (annual bluegrass, Poa annua)
Text: as §1, §2

[16] = Postemergence, 125 g ai/ha, scale 0 to 100 (0 no effect, 100 complete control)
[17] = Postemergence, 62 g ai/ha, scale 0 to 100 (0 no effect, 100 complete control)
[18] = Preemergence, 16 g ai/ha, scale 0 to 100, 0 no effect, 100 complete control
[19] = Preemergence, 31 g ai/ha, scale 0 to 100 (0 no effect, 100 complete control)
[20] = Preemergence, 62 g ai/ha, scale 0 to 100
[21] = Preemergence, 125 g ai/ha, scale 0 to 100
[22] = Postemergence, 16 g ai/ha, scale 0 to 100
[23] = Postemergence, 31 g ai/ha, scale 0 to 100
[24] = Postemergence, 31 g ai/ha, scale 0 to 100 (0 no effect, 100 complete control)

O=C1CCCC(O)=C1C(=O)c1cnc(-c2cccs2)n(-c2ccccc2)c1=O [Compound 66]
Plant response rating, Chickweed [1, 16]: 95
Plant response rating, Chickweed [1, 17]: 35
Plant response rating, Chickweed [1, 18]: 0
Plant response rating, Chickweed [1, 19]: 20
Plant response rating, Chickweed [1, 20]: 90
Plant response rating, Chickweed [1, 21]: 98
Plant response rating, Field Bindweed [2, 22]: 0
Plant response rating, Field Bindweed [2, 23]: 0
Plant response rating, Field Bindweed [2, 16]: 0
Plant response rating, Field Bindweed [2, 17]: 0
Plant response rating, Field Bindweed [2, 18]: 0
Plant response rating, Field Bindweed [2, 19]: 0
Plant response rating, Field Bindweed [2, 20]: 0
Plant response rating, Field Bindweed [2, 21]: 20
Plant response rating, Sandbur [3, 23]: 35
Plant response rating, Sandbur [3, 16]: 90
Plant response rating, Sandbur [3, 17]: 35
Plant response rating, Sandbur [3, 18]: 0
Plant response rating, Sandbur [3, 19]: 5
Plant response rating, Sandbur [3, 21]: 80
Plant response rating, Spanishneedles [4, 22]: 65
Plant response rating, Spanishneedles [4, 23]: 70
Plant response rating, Spanishneedles [4, 16]: 80
Plant response rating, Spanishneedles [4, 17]: 80
Plant response rating, Spanishneedles [4, 18]: 0
Plant response rating, Spanishneedles [4, 19]: 60
Plant response rating, Spanishneedles [4, 21]: 95
Plant response rating, Nutsedge, Purple [5, 22]: 0
Plant response rating, Nutsedge, Purple [5, 23]: 5
Plant response rating, Nutsedge, Purple [5, 16]: 30
Plant response rating, Nutsedge, Purple [5, 17]: 20
Plant response rating, Nutsedge, Purple [5, 18]: 0
Plant response rating, Nutsedge, Purple [5, 19]: 0
Plant response rating, Nutsedge, Purple [5, 20]: 35
Plant response rating, Nutsedge, Purple [5, 21]: 70
Plant response rating, Ragweed [6, 22]: 0
Plant response rating, Ragweed [6, 23]: 0
Plant response rating, Ragweed [6, 16]: 5
Plant response rating, Ragweed [6, 17]: 0
Plant response rating, Ragweed [6, 18]: 0
Plant response rating, Ragweed [6, 19]: 0
Plant response rating, Ragweed [6, 21]: 0
Plant response rating, Quackgrass [7, 22]: 0
Plant response rating, Quackgrass [7, 23]: 5
Plant response rating, Quackgrass [7, 16]: 5
Plant response rating, Quackgrass [7, 17]: 5
Plant response rating, Quackgrass [7, 18]: 0
Plant response rating, Quackgrass [7, 19]: 0
Plant response rating, Quackgrass [7, 21]: 0
Plant response rating, Morningglory [8, 22]: 65
Plant response rating, Morningglory [8, 23]: 70
Plant response rating, Morningglory [8, 16]: 90
Plant response rating, Morningglory [8, 17]: 90
Plant response rating, Morningglory [8, 18]: 0
Plant response rating, Morningglory [8, 19]: 0
Plant response rating, Morningglory [8, 20]: 90
Plant response rating, Morningglory [8, 21]: 95
Plant response rating, Black Mustard [9, 22]: 0
Plant response rating, Black Mustard [9, 24]: 20
Plant response rating, Black Mustard [9, 16]: 98
Plant response rating, Black Mustard [9, 17]: 50
Plant response rating, Black Mustard [9, 18]: 0
Plant response rating, Black Mustard [9, 19]: 5
Plant response rating, Black Mustard [9, 20]: 35
Plant response rating, Black Mustard [9, 21]: 80
Plant response rating, Ryegrass, Italian [10, 22]: 0
Plant response rating, Ryegrass, Italian [10, 23]: 0
Plant response rating, Ryegrass, Italian [10, 16]: 15
Plant response rating, Ryegrass, Italian [10, 17]: 0
Plant response rating, Ryegrass, Italian [10, 18]: 0
Plant response rating, Ryegrass, Italian [10, 19]: 0
Plant response rating, Ryegrass, Italian [10, 21]: 0
Plant response rating, Prickly Sida [11, 23]: 98
Plant response rating, Prickly Sida [11, 16]: 98
Plant response rating, Prickly Sida [11, 17]: 98
Plant response rating, Prickly Sida [11, 18]: 0
Plant response rating, Prickly Sida [11, 19]: 0
Plant response rating, Prickly Sida [11, 20]: 5
Plant response rating, Prickly Sida [11, 21]: 90
Plant response rating, Purslane [12, 23]: 50
Plant response rating, Purslane [12, 16]: 75
Plant response rating, Purslane [12, 17]: 75
Plant response rating, Purslane [12, 18]: 0
Plant response rating, Purslane [12, 19]: 0
Plant response rating, Purslane [12, 20]: 60
Plant response rating, Purslane [12, 21]: 100
Plant response rating, Crabgrass, Large [13, 22]: 20
Plant response rating, Crabgrass, Large [13, 23]: 25
Plant response rating, Crabgrass, Large [13, 16]: 35
Plant response rating, Crabgrass, Large [13, 17]: 25
Plant response rating, Crabgrass, Large [13, 18]: 15
Plant response rating, Crabgrass, Large [13, 19]: 30
Plant response rating, Crabgrass, Large [13, 20]: 50
Plant response rating, Crabgrass, Large [13, 21]: 98
Plant response rating, Signalgrass [14, 22]: 0
Plant response rating, Signalgrass [14, 23]: 10
Plant response rating, Signalgrass [14, 16]: 30
Plant response rating, Signalgrass [14, 17]: 30
Plant response rating, Signalgrass [14, 18]: 0
Plant response rating, Signalgrass [14, 19]: 5
Plant response rating, Signalgrass [14, 21]: 5
Plant response rating, Bluegrass [15, 22]: 0
Plant response rating, Bluegrass [15, 24]: 0
Plant response rating, Bluegrass [15, 16]: 0
Plant response rating, Bluegrass [15, 17]: 0
Plant response rating, Bluegrass [15, 18]: 0
Plant response rating, Bluegrass [15, 19]: 0
Plant response rating, Bluegrass [15, 20]: 0
Plant response rating, Bluegrass [15, 21]: 0
